Columns and labels:
A375 cells = test: Assay 1: A375 cells treated with S1152, S1008 and compound, immunofluorescence (sc-365823) signal; format: cell-based; conditions: 1 μM S1152 + 0.5 μM S1008, one day
Description: One thousand four hundred A375 cells were seeded in each well of a 384 well microplate. One day later they were treated with 1 μM S1152 (Selleckchem) in dimethyl sulfoxide, 0.5 μM S1008 (Selleckchem) and dose ranges of invention compounds for one day in Dulbecco's Modified Eagle's Medium supplemented with 10% fetal calf serum and 2 mM (2S)-2-amino-4-carbamoylbutanoic acid. Wells were incubated with 4% polyoxymethylene (Sigma Aldrich 158127) at ambient temperature. […] After one minute phosphate-buffered saline was replaced with 0.2% polyethylene glycol octylphenyl ether in phosphate-buffered saline. […] 1% aminoethanoic acid in phosphate-buffered saline was added for ten minutes at ambient temperature. […] After one hour at ambient temperature in the dark, signal in wells was measured with a Acumen Cellista. 3,8-Diamino-5-[3-(diethylmethylammonio)propyl]-6-phenylphenanthridinium diiodide-positive objects were defined in FL3 (565-600 nm) with a perimeter between 50-800 μm and a total intensity of 10000-1000000 FLU. Signal in FL2 (500-530 nm) was measured in defined objects. A normalized ratio of total In FL2 over total In FL3 staining was log transformed. A non-linear regression (variable slope, 4 parameters) was used to calculate EC50 values using GraphPad Prism (Version 7.0d).
In an alternative procedure, assay 1 has been affected by changing the counteratain. […] Cells were incubated with 0.5 μg/ml 2-(4-Amidinophenyl)-6-indolecarbamidine dihydrochloride, 4′,6-Diamidino-2-phenylindole dihydrochloride (Sigma D9542) in phosphate-buffered saline for at least 30 minutes at ambient temperature in the dark. A Celigo Imager (Nexcelom) was used to acquire images in the blue and green channel. The blue channel was used as a mask to define the area for the green signal. The average integrated intensity of the green signal was normalized and a non-linear regression (variable slope, 4 parameter) was used to calculate the EC50 values using GraphPad Prism (Version 8.4)

OPM-2 = test: Assay 2: multiple myeloma cellular efficacy, PrestoBlue cell proliferation/survival; format: cell-based; conditions: Homo sapiens, 96 h, OPM-2 cells, 4 days
Description: Multiple Myeloma Cellular Efficacy:
10000 OPM-2 (ACC50; DSMZ) were plated into wells of a 384 well plate (Greiner 781090). Cells were treated for 4 days with a dose range of compound or vehicle. At the end of the experiment cells were stained directly with PrestoBlue (ThermoFisher Scietific; A13262) for 2 hours at 37° C. in a humidified incubator according to manufactor's instruction. To assess the relative cell number the PrestoBlue signal was measured using either a TecanM1000Pro reader or a Tecan Sparks reader following the manufactor's instructions. Background (no cells) values were subtracted and set in relation to the vehicle control. To assess the EC50 of each compound the relative fluorescence value was plotted against the compound concentration after log transformation. Data were fitted in a nonlinear manner with a variable slope (four parameters) using graphpad prism software. Cellular efficacy of compounds was evaluated in the multiple myeloma cell line OPM-2 using the cell proliferation/survival assay PrestoBlue. EC50 values are classified as indicated below.

Structure (SMILES): CC(=O)N1C[C@H](c2nc(Nc3cncc(C)c3)cc(-c3cccnc3)n2)CC[C@@H]1C (racemic) [Compound 00096, (+/−)-cis-1-(2-methyl-5-(4-((5-methylpyridin-3-yl)amino)-6-(pyridin-3-yl)pyrimidin-2-yl)piperidin-1-yl)ethan-1-one]
- EC50 (A375 cells): < 200 nM
- EC50 (OPM-2): 200 to 1000 nM

Structure (SMILES): COc1cncc(-c2cc(Nc3cccc(F)c3)nc([C@H]3CC[C@@H](C)N(C(C)=O)C3)n2)c1 [Compound 00003]
- EC50 (OPM-2): > 10000 nM

Structure (SMILES): CC(=O)Nc1cc(F)cc(Nc2cc(-c3cccnc3)nc([C@@H]3CC[C@H](C)N(C(C)=O)C3)n2)c1 [Compound 00047, N-(3-((2-((3R,6S)-1-acetyl-6-methylpiperidin-3-yl)-6-(pyridin-3-yl)pyrimidin-4-yl)amino)-5-fluorophenyl)acetamide]
- EC50 (A375 cells): < 200 nM
- EC50 (OPM-2): < 200 nM

Structure (SMILES): CC(=O)N1C[C@H](c2nc(Nc3cccc4c3cnn4C)cc(-c3cnccn3)n2)CC[C@@H]1C [Compound 00049, 1-((2S,5R)-2-methyl-5-(4-((1-methyl-1H-indazol-4-yl)amino)-6-(pyrazin-2-yl)pyrimidin-2-yl)piperidin-1-yl)ethan-1-one]
- EC50 (A375 cells): < 200 nM
- EC50 (OPM-2): < 200 nM

Structure (SMILES): CC(=O)N1C[C@H](c2nc(Nc3cccc4nn(C)cc34)cc(-c3cnccn3)n2)CC[C@@H]1C [Compound 00050, 1-((2S,5R)-2-methyl-5-(4-((2-methyl-2/−/−indazol-4-yl)amino)-6-(pyrazin-2-yl)pyrimidin-2-yl)piperidin-1-yl)ethan-1-one]
- EC50 (A375 cells): < 200 nM
- EC50 (OPM-2): 200 to 1000 nM

Structure (SMILES): CC(=O)N1C[C@H](c2nc(Nc3cccc4c3CC(=O)N4)cc(-c3cccnc3)n2)CC[C@@H]1C [Compound 00051, 4-((2-((3R,6S)-1-acetyl-6-methylpiperidin-3-yl)-6-(pyridin-3-yl)pyrimidin-4-yl)amino)indolin-2-]
- EC50 (A375 cells): 200 to 1000 nM
- EC50 (OPM-2): 1000 to 10000 nM

Structure (SMILES): CC(=O)N1C[C@H](c2nc(Nc3cccc(-c4ncn(C)n4)c3)cc(-c3cccnc3)n2)CC[C@@H]1C [Compound 00052, 1-((2S,5R)-2-methyl-5-(4-((3-(1-methyl-1H-1,2,4-triazol-3-yl)phenyl)amino)-6-(pyridin-3-yl)pyrimidin-2-yl)piperidin-1-yl)ethan-1-one]
- EC50 (A375 cells): < 200 nM
- EC50 (OPM-2): < 200 nM

Structure (SMILES): CC(=O)Nc1cccc(Nc2cc(-c3cccnc3)nc([C@@H]3CC[C@H](C)N(C(C)=O)C3)n2)c1 [Compound 00054, N-(3-((2-((3R,6S)-1-acetyl-6-methylpiperidin-3-yl)-6-(pyridin-3-yl)pyrimidin-4-yl)amino)phenyl)acetamide]
- EC50 (A375 cells): < 200 nM
- EC50 (OPM-2): < 200 nM

Structure (SMILES): CC(=O)N1C[C@H](c2nc(Nc3cc(-c4cnn(C)c4)cc(C(F)F)c3)cc(-c3cnccn3)n2)CC[C@@H]1C [Compound 00055, 1-((2S,5R)-5-(4-((3-(difluoromethyl)-5-(1-methyl-1Hpyrazol-4-yl)phenyl)amino)-6-(pyrazin-2-yl)pyrimidin-2-yl)-2-methylpiperidin-1-yl)ethan-1-one]
- EC50 (A375 cells): < 200 nM
- EC50 (OPM-2): < 200 nM

Structure (SMILES): CC(=O)N1C[C@H](c2nc(Nc3cccc4c3cnn4C)cc(-c3cccnc3)n2)CC[C@@H]1C [Compound 00056, 1-((2S,5R)-2-methyl-5-(4-((1-methyl-1H-indazol-4-yl)amino)-6-(pyridin-3-yl)pyrimidin-2-yl)piperidin-1-yl)ethan-1-one]
- EC50 (A375 cells): < 200 nM
- EC50 (OPM-2): < 200 nM

Structure (SMILES): CC(=O)N1C[C@H](c2nc(Nc3cc(F)cc(-c4cnn(C)c4)c3)cc(-c3cncc(N4C[C@@H]5C[C@H]4CO5)c3)n2)CC[C@@H]1C [Compound 00090, 1-((2S,5R)-5-(4-(5-((1S,4S)-2-oxa-5-azabicyclo-[2.2.1]heptan-5-yl)pyridin-3-yl)-6-((3-fluoro-5-(1-methyl-1H-pyrazol-4-yl)phenyl)amino)pyrimidin-2-yl)-2-methylpiperidin-1-yl)ethan-1-one]
- EC50 (OPM-2): < 200 nM

From patent US12478624B2, “Heterocyclic derivatives, pharmaceutical compositions and their use in the treatment or amelioration of cancer” (Tolremo Therapeutics AG, priority 2019, dated 2025)
